This passage reports pest or weed control, inhibition of growth and melting point results from US11026427B2, “Microbiocidal oxadiazole derivatives” (SYNGENTA PARTICIPATIONS AG, priority 2016, dated 2021).

The term melting point denotes the temperature, or range, at which the solid turns liquid.

In data set [1] the test system is Uromyces viciae-fabae. The experiment in a line: Uromyces viciae-fabae / field bean / leaf disc preventative (faba-bean rust). The data set is classed as in vivo. The note with it: foliar, 288 h, 100 ppm in the applied formulation, compared to untreated control, read-out: disease control. How it is done: Leaf disks or leaf segments of various plant species are cut from plants grown in a greenhouse. The cut leaf disks or segments are placed in multiwell plates (24-well format) onto water agar. The leaf disks are sprayed with a test solution before (preventative) or after (curative) inoculation. Compounds to be tested are prepared as DMSO solutions (max. 10 mg/ml) which are diluted to the appropriate concentration with 0.025% Tween20 just before spraying. The inoculated leaf disks or segments are incubated under defined conditions (temperature, relative humidity, light, etc.) according to the respective test system. A single evaluation of disease level is carried out 3 to 14 days after inoculation, depending on the pathosystem. Percent disease control relative to the untreated check leaf disks or segments is then calculated.
Field bean leaf discs are placed on water agar in multiwell plates (96-well format) and 10 μl of the formulated test compound diluted in acetone and a spreader pipetted onto the leaf disc. Two hours after application leaf discs are inoculated by spraying a spore suspension on the lower leaf surface. The leaf discs are incubated in a climate cabinet at 22° C. with 18 hour day and 70% relative humidity. The activity of a compound is assessed as percent disease control compared to untreated when an appropriate level of disease damage appears in untreated check leaf disks (12 days after application).
The following compounds at 100 ppm in the applied formulation give at least 80% disease control in this test when compared to untreated control leaf discs under the same conditions, which show extensive disease development.

Data set [2] has as its system Phakopsora pachyrhizi. Put plainly: Phakopsora pachyrhizi / soybean / leaf disc preventative (Asian soybean rust). The data set is classed as in vivo. The note with it: foliar, 200 ppm in the applied formulation, compared to untreated control, read-out: disease control. In a few lines: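 Read-out is percent disease control relative to untreated check discs, assessed once untreated discs show adequate disease, 12 to 14 days after application. Compounds, tested at 200 ppm in the applied formulation, are sprayed onto soybean leaf discs one day before inoculation with a spore suspension.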

Data set [3] concerns Glomerella lacenarium (Colletotrichum lacenarium). Put plainly: Glomerella lacenarium (Colletotrichum lacenarium) liquid culture / cucumber / preventative (anthracnose). The note with it: 20 ppm in the applied formulation, growth inhibition measured photometrically, compared to untreated control, read-out: disease control. The data set is classed as cell-based. An outline of the steps: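 Photometric measurement of fungal growth inhibition 3 to 4 days after application gives percent activity relative to untreated check. Conidia were suspended in potato dextrose broth and combined with DMSO compound solutions; incubation at 24° C.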

Data set [4] deals with Puccinia recondita f. Sp. tritici. Put plainly: Puccinia recondita f. sp. tritici / wheat / leaf disc preventative (brown rust). The format is in vivo. The note with it: foliar, 200 ppm in the applied formulation, compared to untreated control, read-out: disease control. In a few lines:
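Wheat leaf segments (cv. Kanzler) on water agar were sprayed with test compound (DMSO stock diluted in 0.025% Tween20/water), then spore-inoculated 1 day later. Incubation at 19° C., 75% rh, 12 h light/12 h dark; percent disease control versus untreated segments scored 7 to 9 days after application. Tested at 200 ppm.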

For data set [5] the test system is unchanged. Put plainly: Puccinia recondita f. sp. tritici / wheat / leaf disc curative (brown rust). The data set is classed as in vivo. Particulars: foliar, 200 ppm in the applied formulation, compared to untreated control, read-out: disease control. An outline of the steps: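 Read-out is percent disease control relative to untreated segments, assessed 6 to 8 days after treatment once check disease is adequate. Kanzler wheat leaf segments on agar receive fungal spores, then test compound (DMSO stock diluted in 0.025% Tween20 or water) 1 day later, under 19° C and 75% relative humidity.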

For the compound `C/C=C/CC(=O)c1ccc(-c2noc(C(F)(F)F)n2)cc1` [Compound 1.11, 1-[4-[5-(trifluoromethyl)-1,2,4-oxadiazol-3-yl]phenyl]pent-3-en-1-one], in data set [1], the pest or weed control at 100 ppm was at least 80%. Moreover, the pest or weed control at 200 ppm in data set [2] is at least 80%. The inhibition of growth at 20 ppm in data set [3] was at least 80%.

With `COc1ccc(C(O)c2ccc(-c3noc(C(F)(F)F)n3)cc2)cc1` (centres unmarked) [Compound 2.4, (4-methoxyphenyl)-[4-[5-(trifluoromethyl)-1,2,4-oxadiazol-3-yl]phenyl]methanol], the melting point was 67 to 70 °C. Further, in data set [1], the pest or weed control at 100 ppm is at least 80%. For the same compound, the pest or weed control at 200 ppm in data set [2] was at least 80%.

As to `Cc1ccsc1C(=O)c1ccc(-c2noc(C(F)(F)F)n2)cc1` [Compound 1.12, (3-methyl-2-thienyl)-[4-[5-(trifluoromethyl)-1,2,4-oxadiazol-3-yl]phenyl]methanone], the pest or weed control at 100 ppm in data set [1] is at least 80%. In data set [2], the pest or weed control at 200 ppm was at least 80%. The inhibition of growth at 20 ppm in data set [3] is at least 80%.

Turning to `CC(C)CC(=O)c1ccc(-c2noc(C(F)(F)F)n2)cc1` [Compound 1.10, 3-methyl-1-[4-[5-(trifluoromethyl)-1,2,4-oxadiazol-3-yl]phenyl]butan-1-one], the pest or weed control at 100 ppm in data set [1] was at least 80%. Also, the pest or weed control at 200 ppm in data set [2] was at least 80%.

On to `CC#CC(=O)c1ccc(-c2noc(C(F)(F)F)n2)cc1` [Compound 1.7, 1-[4-[5-(trifluoromethyl)-1,2,4-oxadiazol-3-yl]phenyl]but-2-yn-1-one], for which the melting point lay within 84 to 87 °C. In addition, the pest or weed control at 100 ppm in data set [1] was at least 80%. Also, the pest or weed control at 200 ppm in data set [4] is at least 80%. Besides, the inhibition of growth at 20 ppm in data set [3] is at least 80%.

In turn, `C=CCC(=O)c1ccc(-c2noc(C(F)(F)F)n2)cc1` [Compound 1.8, 1-[4-[5-(trifluoromethyl)-1,2,4-oxadiazol-3-yl]phenyl]but-3-en-1-one] returned a melting point of 65 to 69 °C. Besides, the pest or weed control at 100 ppm in data set [1] was at least 80%. Also, the inhibition of growth at 20 ppm in data set [3] was at least 80%.

`OC(c1ccccc1)c1ccc(-c2noc(C(F)(F)F)n2)cc1` (centres unmarked) [Compound 2.2, phenyl-[4-[5-(trifluoromethyl)-1,2,4-oxadiazol-3-yl]phenyl]methanol] yielded a melting point of 63 to 69 °C. For the same compound, the pest or weed control at 100 ppm in data set [1] was at least 80%. In addition, the pest or weed control at 200 ppm in data set [2] was at least 80%. The pest or weed control at 200 ppm in data set [4] is at least 80%. Besides, the inhibition of growth at 20 ppm in data set [3] is at least 80%.

Compound `CC#CC(O)c1ccc(-c2noc(C(F)(F)F)n2)cc1` (centres unmarked) [Compound 2.6, 1-[4-[5-(trifluoromethyl)-1,2,4-oxadiazol-3-yl]phenyl]but-2-yn-1-ol] showed a melting point of 93 to 96 °C. Besides, the pest or weed control at 100 ppm in data set [1] is at least 80%. The pest or weed control at 200 ppm in data set [2] was at least 80%. Besides, the pest or weed control at 200 ppm in data set [4] was at least 80%. In addition, the inhibition of growth at 20 ppm in data set [3] is at least 80%. For the same compound, the pest or weed control at 200 ppm in data set [5] is at least 80%.

As to `O=C(c1ccc(F)cc1)c1ccc(-c2noc(C(F)(F)F)n2)cc1` [Compound 1.1, (4-fluorophenyl)-[4-[5-(trifluoromethyl)-1,2,4-oxadiazol-3-yl]phenyl]methanone], the melting point lay in the range of 125 to 135 °C. Further, the pest or weed control at 100 ppm in data set [1] was at least 80%. For the same compound, the pest or weed control at 200 ppm in data set [2] was at least 80%.

As to `OC(c1ccc(-c2noc(C(F)(F)F)n2)cc1)C1CC1` (centres unmarked) [Compound 2.7, cyclopropyl-[4-[5-(trifluoromethyl)-1,2,4-oxadiazol-3-yl]phenyl]methanol], the melting point is 69 to 73 °C. Moreover, the pest or weed control at 100 ppm in data set [1] is at least 80%. Besides, the pest or weed control at 200 ppm in data set [4] is at least 80%. Moreover, in data set [3], the inhibition of growth at 20 ppm was at least 80%.

Turning to `C=C(C)C(O)c1ccc(-c2noc(C(F)(F)F)n2)cc1` (centres unmarked) [Compound 2.8, 2-methyl-1-[4-[5-(trifluoromethyl)-1,2,4-oxadiazol-3-yl]phenyl]prop-2-en-1-ol], the pest or weed control at 100 ppm in data set [1] was at least 80%. In addition, the pest or weed control at 200 ppm in data set [2] is at least 80%. Also, the inhibition of growth at 20 ppm in data set [3] is at least 80%.

As for `O=C(c1ccccc1)c1ccc(-c2noc(C(F)(F)F)n2)cc1` [Compound 1.3, phenyl-[4-[5-(trifluoromethyl)-1,2,4-oxadiazol-3-yl]phenyl]methanone], the melting point lay in the range of 110 to 115 °C. Also, the pest or weed control at 100 ppm in data set [1] was at least 80%. For the same compound, in data set [2], the pest or weed control at 200 ppm is at least 80%. The inhibition of growth at 20 ppm in data set [3] is at least 80%.

`OC(c1ccc(OC(F)(F)F)cc1)c1ccc(-c2noc(C(F)(F)F)n2)cc1` (centres unmarked) [Compound 2.5, [4-(trifluoromethoxy)phenyl]-[4-[5-(trifluoromethyl)-1,2,4-oxadiazol-3-yl]phenyl]methanol] gave a melting point of 90 to 93 °C. Moreover, in data set [1], the pest or weed control at 100 ppm was at least 80%. Further, the inhibition of growth at 20 ppm in data set [3] is at least 80%.

In turn, `Cc1ccsc1C(O)c1ccc(-c2noc(C(F)(F)F)n2)cc1` (centres unmarked) [Compound 2.10, (3-methyl-2-thienyl)-[4-[5-(trifluoromethyl)-1,2,4-oxadiazol-3-yl]phenyl]methanol] showed a melting point of 68 to 73 °C. Moreover, the pest or weed control at 100 ppm in data set [1] is at least 80%. Besides, the pest or weed control at 200 ppm in data set [2] is at least 80%. Also, in data set [3], the inhibition of growth at 20 ppm was at least 80%.
